The text below walks through data of patent US20080045514A1 (Cytovia, Inc., priority 2006, published 2008).

Structures are written as SMILES. pEC50: −log10 of the molar value. Where a name gives a salt, the structure may show the parent alone.

Holding throughout (format): cell-based
The subject of test [1] is human breast cancer cell line T-47D. Nature of the test: Caspase cascade activation (EC50), T-47D. Particulars: Homo sapiens; T47D cells; caspase cascade activation; read-out: caspase potency (EC50) T47D. The essentials: (§1)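 Cells in ATCC medium plus 10% FCS, seeded at 0.65×10^6 cells/mL, incubated with compound at 0.016 to 10 μM final, 48 h, 37 °C. Lysis-substrate buffer (14 μM DEVD-R110, 20 mM DTT, pH 7.2, lysolecithin) added; fluorescence read after 3 h at room temperature.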

Test [2] concerns human hepatocellular carcinoma cell line SNU398. Nature of the test: Caspase cascade activation (EC50), SNU398. Particulars: Homo sapiens, SNU-398; SNU398 cells; caspase cascade activation; read-out: caspase potency (EC50) SNU398. In a few lines:
as §1

Test [3] relates to human colon carcinoma cell line HCT116. Nature of the test: Caspase cascade activation (EC50), HCT116. Particulars: Homo sapiens, HCT-116; HCT116 cells; caspase cascade activation; read-out: caspase potency (EC50) HCT116. In a few lines: as §1
Test [4] concerns human Burkitt's lymphoma cell line Namalwa. Nature of the test: Caspase cascade activation (EC50), Namalwa. As to conditions: Homo sapiens, Burkitts lymphoma cell; Namalwa cells; caspase cascade activation; read-out: caspase potency (EC50) Namalwa. In a few lines: as §1
Test [5] deals with human lymphoma cell line Raji. Nature of the test: Caspase cascade activation (EC50), Raji. Particulars: Homo sapiens, RAJI cells, read-out: caspase potency (EC50) RAJI. The essentials:
as §1

Test [6] deals with human B cell lymphoblastoid cell line Ramos. Nature of the test: Caspase cascade activation (EC50), Ramos. As to conditions: Homo sapiens, RAMOS cells, read-out: caspase potency (EC50) RAMOS. The essentials: as §1
In test [7] the test system is human breast cancer cell line T-47D. Nature of the test: Inhibition of cell proliferation (GI50), T47D. As to conditions: Homo sapiens; T47D cells, 48 h, CellTiter-Glo. As to the method:
(§2) Human breast cancer cell lines T-47D, human hepatocellular carcinoma cell line SNU398, human colon carcinoma cell line HCT116, human lung cancer cell line H1299, human leukemia cell line K562, human lymphoma cell line Raji, human B cell lymphoblastoid cell line Ramos, and human Burkitt's lymphoma cell line Namalwa were grown and harvested as in Example 100. An aliquot of […] of cells (4.4×10^4 cells/mL) was added to a well of a 96-well microtiter plate containing 5 μL of a 10% DMSO in RPMI-1640 media solution containing 10 nM to 100 μM of 3-(2-chlorophenyl)-6-(3,4-methylenedioxyphenyl)-7H-[1,2,4]triazolo[3,4-b][1,3,4]thiadiazine (1 nM to 10 μM final). An aliquot of 45 μL of cells was added to a well of a 96-well microtiter plate containing 5 μL of a 10% DMSO in RPMI-1640 media solution without compound as the control sample for maximal cell proliferation (LMax). The samples were mixed by agitation and then incubated at 37° C. for 48 h in a 5% CO2-95% humidity incubator. After incubation, the samples were removed from the incubator and 25 μL of CellTiter-Glo™ reagent (Promega) was added. The samples were mixed by agitation and incubated at room temperature for 10-15 min. Plates were then read using a luminescent plate reader (Model SPECTRAfluor Plus, Tecan) to give Ltest values.
(§3) The samples were mixed by agitation and then incubated at 37° C. for 0.5 h in a 5% CO2-95% humidity incubator. After incubation, the samples were removed from the incubator and 25 μL of CellTiter-Glo™ reagent (Promega) was added. The samples were mixed by agitation and incubated at […] 10-15 min at room temperature in a 5% CO2-95% humidity incubator. Fluorescence was read as above, (LStart) defining luminescence for initial cell number used as baseline in GI50 determinations.
(§4) Calculation: GI50 (dose for 50% inhibition of cell proliferation) is the concentration where [(Ltest−LStart)/(LMax−LStart)]=0.5.

For test [8], the system named is human hepatocellular carcinoma cell line SNU398. Nature of the test: Inhibition of cell proliferation (GI50), SNU398. Particulars: Homo sapiens; SNU 398 cells, 48 h, CellTiter-Glo. As for the experimental part:
as §2, §3, §4
For orientation: ATP-based viability assays read luminescence as a measure of living cells.

Test [9] has as its system human colon carcinoma cell line HCT116. Nature of the test: Inhibition of cell proliferation (GI50), HCT116. As to conditions: Homo sapiens; HCT 116 cells, 48 h, CellTiter-Glo. In a few lines: (§5)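 Proliferation was measured by luminescent ATP assay after cells were incubated with compound for 48 h at 37 °C. GI50 was derived as the concentration giving half the growth seen in drug-free wells, after subtracting the signal recorded 0.5 h post-seeding.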

Test [10] has as its system human Burkitt's lymphoma cell line Namalwa. Nature of the test: Inhibition of cell proliferation (GI50), Namalwa. As to conditions: Homo sapiens, Burkitts lymphoma cell; Namalwa cells, 48 h, CellTiter-Glo. The essentials: as §5
For test [11], the system named is human leukemia cell line K562. Nature of the test: Inhibition of cell proliferation (GI50), K562. As to conditions: Homo sapiens; K562 cells, 48 h, CellTiter-Glo. In a few lines: as §5
For test [12], the system named is human lymphoma cell line Raji. Nature of the test: Inhibition of cell proliferation (GI50), Raji. Particulars: Homo sapiens; Raji cells, 48 h, CellTiter-Glo. In a few lines:
as §5

The test system of test [13] is human B cell lymphoblastoid cell line Ramos. Nature of the test: Inhibition of cell proliferation (GI50), Ramos. As to conditions: Homo sapiens; Ramos cells, 48 h, CellTiter-Glo. In a few lines:
as §5

The subject of test [14] is human cancer cell line H1299. Nature of the test: Caspase cascade activation (EC50), H1299. As to conditions: NCI-H1299, H1299 cells, read-out: caspase potency (EC50) H1299. The essentials:
as §1

For test [15], the system named is human lung cancer cell line H1299. Nature of the test: Inhibition of cell proliferation (GI50), H1299. Particulars: NCI-H1299, H1299 cells, 48 h, CellTiter-Glo. As for the experimental part: as §2, §3, §4

As a reminder, the pEC50 is the negative decadic logarithm of the EC50, by convention in mol/L. As a reminder, the GI50 is the concentration giving 50% growth inhibition. For `COc1ccc(C2=Nn3c(nnc3-c3ccc(OC)cc3OC)SC2)cc1` [Example 18, 3-(2,4-Dimethoxyphenyl)-6-(4-methoxyphenyl)-7H-[1,2,4]triazolo[3,4-b][1,3,4]thiadiazine hydrochloride], the pEC50 in test [1] was 7.49; in [2], 8.22; in test [3], 7.77; in test [4], 8.15; in [5], 7.82; in [6] it was 8.15. Also, the GI50 came to 28 nM in test [7], 1 nM in [8], 34 nM in test [9] and 6 nM in test [10].
For `c1cc2c(cc1C1=Nn3c(nnc3-c3n[nH]c4c3CCC4)SC1)OCO2` [Example W2], the pEC50 is 6.37 in test [1]; 6.30 in test [2]; 6.22 in test [3]; 6.23 in [4]; 6.15 in test [5]; 6.28 in test [6]. The GI50 in [7] came to 1500 nM; in [8] it was 294 nM; in [9], 5900 nM; in test [11], 1870 nM; in test [12], 3000 nM; in [13], 1290 nM. This compound also displayed a GI50 in [10] of 2550 nM.
Take `Clc1ccc(-c2nnc3n2N=C(c2ccc4c(c2)OCO4)CS3)cc1` [G, 3-(4-Chlorophenyl)-6-(3,4-methylenedioxyphenyl)-7H-[1,2,4]triazolo[3,4-b][1,3,4]thiadiazine]: the pEC50 in test [1] was 6.29; in test [2], 6.56; in test [3], 6.07; in test [14], 5.85; in test [4] it was 6.58; in test [5] it was 6.41. Moreover, the pEC50 in [6] was 6.32. Besides, the GI50 amounted to 97 nM in test [7] and 307 nM in test [15].
With `COc1ccc(C2=Nn3c(nnc3-c3ccccc3Cl)SC2)cc1OC` [N, 3-(2-Chlorophenyl)-6-(3,4-dimethoxyphenyl)-7H-[1,2,4]triazolo[3,4-b][1,3,4]thiadiazine], the negative logarithm of the EC50 (pEC50) in test [1] is 5.62; in test [2] it was 6.44; in test [3], 6.25; in [14] it was 6.12; in [4], 6.56; in [5], 6.30. Besides, in test [6], the pEC50 is 6.56. Moreover, the GI50 was 2540 nM in test [7] and 510 nM in test [15].
Turning to `CCN(CC)c1ccc(C2=Nn3c(nnc3-c3cc(OC)c(OC)c(OC)c3)SC2)cc1` [Example 21, 6-(4-Diethylaminophenyl)-3-(3,4,5-trimethoxyphenyl)-7H-[1,2,4]triazolo[3,4-b][1,3,4]thiadiazine hydrochloride], the pEC50 is 6.55 in [4], 6.36 in [5] and 6.57 in test [6]. Also, the concentration for 50% growth inhibition (GI50) in test [7] came out at 185 nM; in [8], 20 nM; in test [9] it was 680 nM; in [10], 176 nM.
For `COc1ccccc1-c1nnc2n1N=C(c1ccc(C)cc1)CS2` [Example 8, 3-(2-Methoxyphenyl)-6-(4-methylphenyl)-7H-[1,2,4]triazolo[3,4-b][1,3,4]thiadiazine hydrochloride], the pEC50 in test [1] was 6.84; in test [2] it was 7.60; in [3] it was 7.22; in [4], 7.51; in test [5], 7.24; in [6], 7.52. Also, the GI50 in [7] came out at 17 nM; in test [8], 150 nM; in [9], 15 nM; in [11], 43 nM; in [12] it was 27 nM; in [13] it was 16 nM. This compound displayed a 50% growth inhibitory concentration (GI50) in [10] of 66 nM.
Turning to `COc1ccc(C2=Nn3c(nnc3-c3cc(OC)cc(OC)c3)SC2)cc1` [Example 20, 3-(3,5-Dimethoxyphenyl)-6-(4-methoxyphenyl)-7H-[1,2,4]triazolo[3,4-b][1,3,4]thiadiazine hydrobromide], the figures for the pEC50 in [4], in test [5] and in test [6] were 7.26, 7.02 and 7.44, respectively. The concentration for 50% growth inhibition (GI50) in test [7] stood at 373 nM; in test [8], 11 nM; in test [9], 99 nM; in [10], 13 nM.
Take `Cc1ccc(C2=Nn3c(nnc3-c3ccccc3F)SC2)cc1` [Example 68, 3-(2-Fluorophenyl)-6-(4-methylphenyl)-7H-[1,2,4]triazolo[3,4-b][1,3,4]thiadiazine]: the pEC50 in test [1] is 5.28; in test [2], 6.20; in test [3] it was 5.90; in test [4] it was 6.32. The GI50 in test [7] was determined as 2760 nM; in test [8], 144 nM; in test [9], 947 nM; in test [10] it was 269 nM.
As for `CCOc1ccccc1-c1nnc2n1N=C(c1ccc(C)cc1)CS2` [Example 19, 3-(2-Ethoxyphenyl)-6-(4-methylphenyl)-7H-[1,2,4]triazolo[3,4-b][1,3,4]thiadiazine hydrobromide], the pEC50 in test [1] was 7.46; in [2], 7.62; in test [3], 7.49; in test [4], 7.77; in [5], 7.54; in test [6] it was 7.70. For the same compound, the GI50 came out at 48 nM in test [7], 12 nM in [8], 67 nM in [9] and 12 nM in test [10].
As for `COc1ccccc1-c1nnc2n1N=C(c1ccc(OC)c(OC)c1OC)CS2` [Example 42, 6-(2,3,4-Trimethoxyphenyl)-3-(2-methoxyphenyl)-7H-[1,2,4]triazolo[3,4-b][1,3,4]thiadiazine], the pEC50 was 6.47 in [1], 6.31 in [2], 6.12 in test [3] and 6.50 in [4]. The GI50 came to 288 nM in test [7], 121 nM in [8], 482 nM in test [9] and 433 nM in test [10].
Regarding `COc1ccccc1-c1nnc2n1N=C(c1ccc(C(F)(F)F)cc1)CS2` [Example 48, 6-(4-(Trifluoromethyl)phenyl)-3-(2-methoxyphenyl)-7H-[1,2,4]triazolo[3,4-b][1,3,4]thiadiazine], the pEC50 in test [1] was 6.26; in test [2], 6.29; in test [3], 6.24; in [4], 6.32. For the same compound, the GI50 came out at 690 nM in test [7], 120 nM in test [8], 324 nM in test [9] and 452 nM in [10].
